# According to patent publication US12662479B2 (Foghorn Therapeutics Inc., priority 2020, dated 2026):
# Counter-ions that a name gives are not always drawn.
# Assays:
# [1] = molecular target: T1, HiBit-BRM fusion protein (Homo sapiens, UniProt P51531); assay: HiBiT-BRM cell-based degradation assay (Nano-Glo HiBiT Lytic Detection, 24 h); conditions: HeLa cells expressing HiBiT-BRM; for DC50: read-out: BRM HiBit Degradation IC50; for BRM HiBit Degradation Maximum measured: top dose 30 μM
# T1 construct: expressed in transfected cells
# T1 sequence (P51531 whole entry, the tested form may be a part): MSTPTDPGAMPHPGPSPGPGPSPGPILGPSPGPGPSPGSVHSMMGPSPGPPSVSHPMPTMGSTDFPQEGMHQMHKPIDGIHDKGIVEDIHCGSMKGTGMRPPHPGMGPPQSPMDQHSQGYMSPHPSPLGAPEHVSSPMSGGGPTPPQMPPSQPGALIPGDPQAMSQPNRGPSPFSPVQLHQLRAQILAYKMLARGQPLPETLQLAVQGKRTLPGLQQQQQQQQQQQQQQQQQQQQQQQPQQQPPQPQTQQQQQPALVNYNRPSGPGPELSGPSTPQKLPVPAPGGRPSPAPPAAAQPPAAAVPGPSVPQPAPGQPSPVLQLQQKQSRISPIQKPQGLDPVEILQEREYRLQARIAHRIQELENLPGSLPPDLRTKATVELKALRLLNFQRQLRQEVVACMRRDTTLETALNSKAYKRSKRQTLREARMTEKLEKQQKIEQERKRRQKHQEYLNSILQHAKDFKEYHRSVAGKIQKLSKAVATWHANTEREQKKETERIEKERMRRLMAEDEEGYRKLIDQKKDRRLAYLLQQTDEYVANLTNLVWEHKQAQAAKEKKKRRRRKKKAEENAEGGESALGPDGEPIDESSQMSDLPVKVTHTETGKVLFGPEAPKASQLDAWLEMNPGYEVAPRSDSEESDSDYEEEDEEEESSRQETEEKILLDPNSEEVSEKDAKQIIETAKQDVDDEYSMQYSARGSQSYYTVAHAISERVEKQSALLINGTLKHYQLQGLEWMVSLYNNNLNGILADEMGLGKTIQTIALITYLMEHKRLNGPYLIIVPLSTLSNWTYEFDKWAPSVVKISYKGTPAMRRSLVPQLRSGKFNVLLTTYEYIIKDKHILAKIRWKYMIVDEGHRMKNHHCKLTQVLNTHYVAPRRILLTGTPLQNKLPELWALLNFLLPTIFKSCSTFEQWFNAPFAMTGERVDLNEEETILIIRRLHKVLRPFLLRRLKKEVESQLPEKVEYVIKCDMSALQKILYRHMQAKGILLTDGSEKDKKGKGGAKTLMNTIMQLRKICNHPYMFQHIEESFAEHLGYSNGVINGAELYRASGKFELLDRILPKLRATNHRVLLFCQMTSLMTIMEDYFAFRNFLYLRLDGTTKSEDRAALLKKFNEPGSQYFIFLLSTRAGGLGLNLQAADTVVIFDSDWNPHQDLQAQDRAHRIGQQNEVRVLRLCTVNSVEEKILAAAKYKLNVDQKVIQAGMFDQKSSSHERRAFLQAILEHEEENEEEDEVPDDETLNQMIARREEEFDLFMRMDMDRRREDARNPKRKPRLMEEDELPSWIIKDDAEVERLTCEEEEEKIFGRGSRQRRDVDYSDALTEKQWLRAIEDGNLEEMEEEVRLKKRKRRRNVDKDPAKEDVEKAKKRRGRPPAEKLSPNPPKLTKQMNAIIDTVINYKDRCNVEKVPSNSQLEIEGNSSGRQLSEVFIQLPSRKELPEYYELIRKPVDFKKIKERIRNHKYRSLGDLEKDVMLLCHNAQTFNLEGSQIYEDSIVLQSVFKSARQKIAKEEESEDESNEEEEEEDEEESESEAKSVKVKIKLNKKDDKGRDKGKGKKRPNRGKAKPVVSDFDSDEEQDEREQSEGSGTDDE
# Method in brief: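 Residual HiBiT-BRM in a stable HeLa line was measured by Nano-Glo lytic luminescence after 24 h compound exposure (top final dose 30 μM, 3-fold, 10 points, duplicate). Values are % degradation, scaled between DMSO-treated cells and cells given 2 μM of a known BRM/BRG1 degrader.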
# [2] = molecular target: T2, HiBit-BRG1 fusion protein (Homo sapiens, UniProt P51532); assay: HiBiT-BRG1 cell-based degradation assay (Nano-Glo HiBiT Lytic Detection, 24 h); conditions: HeLa cells expressing HiBit-BRG1 and LgBit; for DC50: read-out: BRG1 HiBit Degradation IC50; for Dmax: HeLa, top dose 30 μM, read-out: BRG1 HiBit Degradation Maximum measured
# T2 construct: expressed in transfected cells
# T2 sequence (P51532 whole entry, the tested form may be a part): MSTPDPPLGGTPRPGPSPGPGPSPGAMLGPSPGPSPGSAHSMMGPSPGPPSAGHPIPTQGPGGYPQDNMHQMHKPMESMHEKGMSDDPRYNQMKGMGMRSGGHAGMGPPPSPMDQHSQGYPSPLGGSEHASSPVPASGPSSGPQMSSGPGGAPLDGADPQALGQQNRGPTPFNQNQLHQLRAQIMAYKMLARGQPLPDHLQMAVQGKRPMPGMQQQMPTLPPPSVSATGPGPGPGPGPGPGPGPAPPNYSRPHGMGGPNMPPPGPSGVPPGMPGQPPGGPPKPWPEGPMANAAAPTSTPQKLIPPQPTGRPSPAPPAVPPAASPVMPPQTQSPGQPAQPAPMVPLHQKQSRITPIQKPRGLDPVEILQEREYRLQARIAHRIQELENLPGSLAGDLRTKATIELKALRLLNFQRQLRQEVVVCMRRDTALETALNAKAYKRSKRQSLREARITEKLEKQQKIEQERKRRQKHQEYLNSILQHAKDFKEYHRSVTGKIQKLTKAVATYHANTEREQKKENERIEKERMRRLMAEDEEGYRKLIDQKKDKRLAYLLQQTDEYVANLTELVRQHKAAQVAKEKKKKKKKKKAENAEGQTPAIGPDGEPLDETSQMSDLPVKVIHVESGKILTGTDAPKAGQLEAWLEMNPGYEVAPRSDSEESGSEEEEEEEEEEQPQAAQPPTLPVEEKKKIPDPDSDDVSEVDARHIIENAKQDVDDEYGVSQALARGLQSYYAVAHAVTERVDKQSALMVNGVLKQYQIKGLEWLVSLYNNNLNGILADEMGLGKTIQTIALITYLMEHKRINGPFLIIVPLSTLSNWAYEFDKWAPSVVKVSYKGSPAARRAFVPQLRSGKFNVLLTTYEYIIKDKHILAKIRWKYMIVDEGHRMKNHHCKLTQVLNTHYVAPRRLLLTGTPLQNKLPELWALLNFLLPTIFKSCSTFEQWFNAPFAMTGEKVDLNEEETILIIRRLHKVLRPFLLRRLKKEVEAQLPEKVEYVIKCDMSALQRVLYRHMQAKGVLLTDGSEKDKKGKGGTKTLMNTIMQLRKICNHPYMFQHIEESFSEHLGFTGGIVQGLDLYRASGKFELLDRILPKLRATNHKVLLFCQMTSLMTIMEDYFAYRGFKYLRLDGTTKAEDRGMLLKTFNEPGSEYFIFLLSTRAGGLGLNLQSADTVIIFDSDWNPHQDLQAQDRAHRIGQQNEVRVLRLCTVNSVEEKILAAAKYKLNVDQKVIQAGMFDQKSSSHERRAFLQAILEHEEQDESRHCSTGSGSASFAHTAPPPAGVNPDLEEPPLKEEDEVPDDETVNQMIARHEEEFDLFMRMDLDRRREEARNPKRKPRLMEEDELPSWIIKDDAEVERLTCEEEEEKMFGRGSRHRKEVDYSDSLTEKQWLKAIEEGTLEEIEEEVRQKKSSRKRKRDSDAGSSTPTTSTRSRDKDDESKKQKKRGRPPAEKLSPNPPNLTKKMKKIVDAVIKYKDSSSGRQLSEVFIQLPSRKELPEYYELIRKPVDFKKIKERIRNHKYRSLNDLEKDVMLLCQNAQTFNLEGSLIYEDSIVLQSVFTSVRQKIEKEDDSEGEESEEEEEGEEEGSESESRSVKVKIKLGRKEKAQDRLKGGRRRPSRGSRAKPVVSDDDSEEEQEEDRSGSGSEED
# Method in brief: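 Degradation is scaled from DMSO-treated cells (0%) to cells given 2 μM of a known BRM/BRG1 degrader (100%). HeLa cells stably carrying HiBiT-BRG1 plus LgBiT (5000/well) were lysed with Nano-Glo HiBiT detection reagent, shaken 10 min at RT, and luminescence read.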
DC50 [1],BRM HiBit Degradation Maximum measured [1],DC50 [2],Dmax [2],SMILES
> 10 µM,C (‘C’ = Maximum degradation <50%),> 10 µM,< 50%,"Cc1cc(C(=O)NCC(=O)Nc2nc(-c3cccc(-c4ccnc(N(C)CC(=O)N5CCC(C6CCN(C(=O)COc7cccc8c7C(=O)N(C7CCC(=O)NC7=O)C8=O)CC6)CC5)c4)c3)cs2)cn1S(C)(=O)=O (stereo not shown) [Compound 130, N-[2-[[4-[3-[2-[[2-[4-[1-[2-[2-(2,6-dioxo-3-piperidyl)-1,3-dioxo-isoindolin-4-yl]oxyacetyl]-4-piperidyl]-1-piperidyl]-2-oxo-ethyl]-methyl-amino]-4-pyridyl]phenyl]thiazol-2-yl]amino]-2-oxo-ethyl]-5-methyl-1-methylsulfonyl-pyrrole-3-carboxamide]"
> 10 µM,C (‘C’ = Maximum degradation <50%),> 10 µM,< 50%,"CS(=O)(=O)n1ccc(C(=O)N[C@@H](COCc2ccc(C(=O)NCCOc3cccc(OCCNc4cccc5c4C(=O)N(C4CCC(=O)NC4=O)C5=O)c3)cc2)C(=O)Nc2nc(-c3ccccc3)cs2)c1 (stereo partly drawn) [Compound 206, N-[2-[3-(2-[[2-(2,6-dioxopiperidin-3-yl)-1,3-dioxoisoindol-4-yl]amino]ethoxy)phenoxy]ethyl]-4-[[(2S)-2-[(1-methanesulfonylpyrrol-3-yl)formamido]-2-[(4-phenyl-1,3-thiazol-2-yl)carbamoyl]ethoxy]methyl]benzamide]"
> 10 µM,C (‘C’ = Maximum degradation <50%),> 10 µM,< 50%,"CS(=O)(=O)n1ccc(C(=O)NCC(=O)Nc2nc(C3CCCN(C(=O)C4CCN(CCOc5ccc6c(c5)C(=O)N(C5CCC(=O)NC5=O)C6=O)CC4)C3)cs2)c1 (stereo not shown) [Compound 145, N-(4-{1-[1-(2-{[2-(2,6-dioxopiperidin-3-yl)-1,3-dioxo-2,3-dihydro-1H-isoindol-5-yl]oxy}ethyl)piperidine-4-carbonyl]piperidin-3-yl}-1,3-thiazol-2-yl)-2-[(1-methanesulfonyl-1H-pyrrol-3-yl)formamido]acetamide formate]"
> 10 µM,C (‘C’ = Maximum degradation <50%),> 10 µM,< 50%,"CS(=O)(=O)n1ccc(C(=O)N[C@@H](COCc2ccc(C(=O)NCCOCCOCCOCCNC(=O)COc3ccc4c(c3)C(=O)N(C3CCC(=O)NC3=O)C4=O)cc2)C(=O)Nc2nc(-c3ccccc3)cs2)c1 (stereo partly drawn) [Compound 202, (2S)-3-[(4-[[2-(2-[2-[2-(2-[[2-(2,6-dioxopiperidin-3-yl)-1,3-dioxoisoindol-5-yl]oxy]acetamido)ethoxy]ethoxy]ethoxy)ethyl]carbamoyl]phenyl)methoxy]-2-[(1-methanesulfonylpyrrol-3-yl)formamido]-N-(4-phenyl-1,3-thiazol-2-yl)propanamide]"
< 0.1 µM,A (‘A’ = Maximum degradation >75%),< 0.1 µM,> 75%,"Cc1ncsc1-c1ccc(CNC(=O)[C@@H]2C[C@@H](O)CN2C(=O)[C@@H](NC(=O)CCCCCCCCCC(=O)NCc2cccc(-c3cccc(-c4csc(NC(=O)CNC(=O)c5ccn(S(C)(=O)=O)c5)n4)c3)c2)C(C)(C)C)cc1 [Compound 65, N1-((S)-1-((2S,4R)-4-hydroxy-2-((4-(4-methylthiazol-5-yl)benzyl)carbamoyl)pyrrolidin-1-yl)-3,3-dimethyl-1-oxobutan-2-yl)-N11-((3′-(2-(2-(1-(methylsulfonyl)-1H-pyrrole-3-carboxamido)acetamido)thiazol-4-yl)-[1,1′-biphenyl]-3-yl)methyl)undecanediamide]"
0.1 to 1 µM,A (‘A’ = Maximum degradation >75%),< 0.1 µM,> 75%,"CS(=O)(=O)n1ccc(C(=O)N[C@@H](COCc2ccc(C(=O)NCCCCCCNc3ccc4c(c3)C(=O)N(C3CCC(=O)NC3=O)C4=O)cc2)C(=O)Nc2nc(-c3ccccc3)cs2)c1 (stereo partly drawn) [Compound 201, N-(6-[[2-(2,6-dioxopiperidin-3-yl)-1,3-dioxoisoindol-5-yl]amino]hexyl)-4-[[(2S)-2-[(1-methanesulfonylpyrrol-3-yl)formamido]-2-[(4-phenyl-1,3-thiazol-2-yl)carbamoyl]ethoxy]methyl]benzamide]"
> 10 µM,C (‘C’ = Maximum degradation <50%),> 10 µM,< 50%,"CS(=O)(=O)n1ccc(C(=O)N[C@@H](CCOCCCC(=O)NCCCCCCNc2ccc3c(c2)C(=O)N(C2CCC(=O)NC2=O)C3=O)C(=O)Nc2nc(-c3ccccc3)cs2)c1 (stereo partly drawn) [Compound 283, (2S)-4-[3-[(6-[[2-(2,6-dioxopiperidin-3-yl)-1,3-dioxoisoindol-5-yl]amino]hexyl)carbamoyl]propoxy]-2-[(1-methanesulfonylpyrrol-3-yl)formamido]-N-(4-phenyl-1,3-thiazol-2-yl)butanamide]"
> 10 µM,C (‘C’ = Maximum degradation <50%),> 10 µM,50 to 75%,"CS(=O)(=O)n1ccc(C(=O)NCC(=O)Nc2nc(-c3cccc(-c4cccc(CNC(=O)CCCCCCCCNc5cccc6c5C(=O)N(C5CCC(=O)NC5=O)C6=O)c4)c3)cs2)c1 (stereo not shown) [Compound 20, N-(2-((4-(3′-((9-((2-(2,6-dioxopiperidin-3-yl)-1,3-dioxoisoindolin-4-yl)amino)nonanamido)methyl)-[1,1′-biphenyl]-3-yl)thiazol-2-yl)amino)-2-oxoethyl)-1-(methylsulfonyl)-1H-pyrrole-3-carboxamide]"

SMILES,DC50 [1],BRM HiBit Degradation Maximum measured [1],DC50 [2],Dmax [2]
"Cc1ncsc1-c1ccc(CNC(=O)[C@@H]2C[C@@H](O)CN2C(=O)[C@@H](NC(=O)COCCOCC(=O)NCc2cccc(-c3cccc(-c4csc(NC(=O)CNC(=O)c5ccn(S(C)(=O)=O)c5)n4)c3)c2)C(C)(C)C)cc1 [Compound 44, N-(2-((4-(3′-((S)-12-((2S,4R)-4-hydroxy-2-((4-(4-methylthiazol-5-yl)benzyl)carbamoyl)pyrrolidine-1-carbonyl)-13,13-dimethyl-3,10-dioxo-5,8-dioxa-2,11-diazatetradecyl)-[1,1′-biphenyl]-3-yl)thiazol-2-yl)amino)-2-oxoethyl)-1-(methylsulfonyl)-1H-pyrrole-3-carboxamide]",1 to 10 µM,B (‘B’ = Maximum degradation ≥50% and ≤75%),1 to 10 µM,> 75%
"Cc1ncsc1-c1ccc(CNC(=O)[C@@H]2C[C@@H](O)CN2C(=O)[C@@H](NC(=O)CN2CCC(C(=O)NCc3cccc(-c4cccc(-c5csc(NC(=O)CNC(=O)c6ccn(S(C)(=O)=O)c6)n5)c4)c3)CC2)C(C)(C)C)cc1 [Compound 138, 1-([[(2S)-1-[(2S,4R)-4-hydroxy-2-([[4-(4-methyl-1,3-thiazol-5-yl)phenyl]methyl]carbamoyl)pyrrolidin-1-yl]-3,3-dimethyl-1-oxobutan-2-yl]carbamoyl]methyl)-N-[[3-(2-[2-[(1-methanesulfonylpyrrol-3-yl)formamido]acetamido]-1,3-thiazol-4-yl)-[1,1-biphenyl]-3-yl]methyl]piperidine-4-carboxamide]",1 to 10 µM,B (‘B’ = Maximum degradation ≥50% and ≤75%),1 to 10 µM,50 to 75%
